“Also recorded” adds a separate entry of the source.
Key:
IDH2 = molecular target: T1, IDH2 (Homo sapiens, UniProt P48735); test: IDH2 in vitro activity assay (NADPH-coupled diaphorase/resazurin); assay type: biochemical; settings: known inhibitor control
T1 construct: purchased active motif 31615
T1 sequence (P48735 40-452): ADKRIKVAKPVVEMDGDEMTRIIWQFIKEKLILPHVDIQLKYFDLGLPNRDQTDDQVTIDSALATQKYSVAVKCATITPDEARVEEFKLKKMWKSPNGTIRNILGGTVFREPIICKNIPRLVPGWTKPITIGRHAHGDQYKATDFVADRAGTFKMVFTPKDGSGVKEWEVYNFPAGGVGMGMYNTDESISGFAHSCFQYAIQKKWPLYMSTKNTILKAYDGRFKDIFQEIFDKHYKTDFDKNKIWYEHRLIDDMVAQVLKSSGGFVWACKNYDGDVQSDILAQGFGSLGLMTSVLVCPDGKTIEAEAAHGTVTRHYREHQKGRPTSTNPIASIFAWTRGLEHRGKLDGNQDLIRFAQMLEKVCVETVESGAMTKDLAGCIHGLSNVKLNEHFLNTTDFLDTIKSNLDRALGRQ
Description: Recombinant human isocitrate dehydrogenase was purchased from active motif (Carlsbad, USA, Cat#
Activity assays were performed as previously described with minor
modifications.12 Briefly, the catalytic activity of converting is ocitrate to 2-oxogluterate (α-
ketoglutarate) converting the cofactor NADP+ to NADPH was measured by a NADPH-coupled assay.
The NADPH-dependent diaphorase (Sigma-Aldrich, St. Louis, USA, Cat# SLBT8928) converted resazurin
for activity read-out. To IDH2 (2 nM) in assay buffer (150 mM NaCl, 50 mM K2HPO4, 10 mM MnCl2, 10
mercaptoethanol (cend= 2.5 mM) for a total reaction volume of 79 µL per well (black 96-well plate, 4
replicates per condition). Conditions lacking IDH2 were added as control. After addition of 1 µL of
vehicle controls, the mixture was incubated at 25 °C for 1 h in the dark. Subsequently, the reaction was
initiated by addition of 20 µL of substrate mix (0.2 mM isocitrate, 60 µg/mL diaphorase, 200 µM
resazurin in assay buffer). Fluorescence was continuously measured using an Infinite M200 pro (Tecan,
the fluorescence increases were calculated via linear regression using GraphPad Prism (version 9).

ADAL1 = molecular target: T2, ADAL1 (Homo sapiens, UniProt Q6DHV7); test: ADAL1 in vitro activity assay (N6-methyl-AMP absorbance shift); assay type: biochemical; settings: tested up to 500 µM
T2 construct: Full length ADAL1 gene synthesis; made in house; host or cells: E. coli BL21 (DE3)
T2 sequence (Q6DHV7 1-355): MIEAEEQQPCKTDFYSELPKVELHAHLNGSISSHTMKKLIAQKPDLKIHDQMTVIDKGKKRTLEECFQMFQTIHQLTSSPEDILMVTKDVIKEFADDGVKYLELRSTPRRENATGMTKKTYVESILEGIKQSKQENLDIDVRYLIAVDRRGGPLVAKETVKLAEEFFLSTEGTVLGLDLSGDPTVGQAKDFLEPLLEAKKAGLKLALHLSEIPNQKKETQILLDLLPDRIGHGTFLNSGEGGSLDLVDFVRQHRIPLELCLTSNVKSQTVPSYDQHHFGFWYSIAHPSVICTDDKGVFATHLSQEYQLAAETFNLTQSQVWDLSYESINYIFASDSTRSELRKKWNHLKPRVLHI
Description: Cytiva, Marlborough, USA, Cat# 6818-1304). Nickel-affinity chromatography purification was
performed with Äkta Pure system (GE Healthcare, Chicago, USA) using an HisTrap HP (5 mL, Cytiva,
Marlborough, USA, Cat# 17-5248) column equilibrated in buffer A. The filtered lysate was applied via
the sample pump and subsequently the column was washed for 15 column volumes (CV) with buffer
A, before gradient elution with buffer B (50 mM Tris pH 8.0, 300 mM NaCl, 5 mM β-mercaptoethanol,
0.1% (v/v) NP40, 10% (v/v) glycerol and 400 mM imidazole) from 0% to 100% buffer B over for 25 CV.
ADAL1 containing fraction s were identified via SDS-PAGE, pooled and dialyzed in buffer 1 (20 mM Tris
pH 8.0, 1 mM DTT, 10% (v/v) glycerol ) in a dialysis membrane ( Carl Roth, Karlsruhe, Germany, Cat#
E659.1) overnight at 4 °C. […]
methyl-AMP (Cayman Chemical, Ann Arbor, USA, Cat# 23382) to […] by ADAL1 was monitored by
the shift of the absorbance maxima of educt ( 265 nm) and product (250 nm). […]
substrate N6-methyl-AMP (1 µL of 20 mM stock in PBS). The absorbance at 270 nm was continuously
measured using a Infinite M200 Pro (Tecan, Männedorf, Switzerland) plate reader. […]
the absorbance readings were calculated via linear regression using GraphPad Prism (version 9). […]
residual activity of compound treated protein was determined in comparison to vehicle -treated […]

NUDT1 = NUDT1 (Homo sapiens, UniProt P36639); test: NUDT1 in vitro activity assay (malachite green); assay type: biochemical; design: Full length NUDT1 gene synthesis; N-terminal His tag with thrombin site from pET28a(+) (NdeI/XhoI) (N, cleaved yes); made in house; host or cells: E. coli BL21 (DE3); settings: tested 1-500 µM; highest tested 500 µM
[1] = test system: HEK‐293 and PDL‐hTERT cells; test: MTT assay, relative metabolic activity after 3 days; assay type: cell-based, human; settings: 3 days of treatment
Description: Methods and Experimental Procedures
(Alfa Aesar, Haverhill, USA, Cat# J66943 ) stocks were prepared in sterile -filtered 0.1 N HCl to a
maximum concentration of 50 mM. HCl was used as vehicle control, diluted in culture medium, and
Cell culture experiments were performed in HEK 293, A549 or PDL-hTERT cells1 cultured in DMEM high
glucose medium supplemented with 10% FCS and 2 mM glutamine ( all, Sigma-Aldrich, St. Louis, USA,
Cat# G7513) in 5% CO2 atmosphere at 37 °C in Heracell 150i incubators (Thermo Fisher Scientific,
Waltham, USA). The human periodontal ligament (PDL -hTERT) cell line was provided by Prof. Denitsa
Docheva. During standard cell passaging accutase (Sigma-Aldrich) or 2,5x trypsin/0.5% EDTA in PBS
(Capricorn Scientific, Ebsdorfergrund, Germany) was used for cell detachment. Cell dishes in various
sizes (10 cm, 15 cm) and flasks (T75, T175) were used for cultivation (Sarstedt, Nümbrecht, Germany,
purchased from Thermo Fisher Scientific, Waltham, USA, Cat# 130184, 130188.
HEK or PDL-hTERT cells (1,5 x 10^3 cells/well) were seeded into 96 -well plates and grown for 24 h. […]
removed by suction and the formed formazan crystals dissolved in 200 μL DMSO. The read-out was
performed with an Infinite M200 Pro microplate reader (Tecan, Männedorf, Switzerland) at 570 nm
and background was subtracted at 630 nm. The absorbance values were normalized to DMSO/0.1 N […]

[2] = test system: periodontal ligament cell line (PDL‐hTERT); test: Whole proteome analysis and pathway analysis of treated PDL-hTERT cells; assay type: cell-based, human; design: dose or concentration left out as unconfirmed; settings: same concentrations ([…] and […] µM), 3 days, compared with Ciprofloxacin

Row | extent of IDH2 (wild-type) inhibition compared with the FQs (IDH2) | Compound | ADAL1 in vitro activity, effect (ADAL1) | NUDT1 in vitro activity, inhibition (NUDT1) | approximate apparent IC50 (metabolic activity, MTT) [1] | regulation of ETC complex I and IV subunits [2]
1 | similar | CC(C)(O)CNc1nc(Nc2ccnc(C(F)(F)F)c2)nc(-c2cccc(C(F)(F)F)n2)n1 [Enadisenib, Enasidenib] | – | – | – | –
2 | – | C[C@H]1COc2c(N3CCN(C)CC3)c(F)cc3c(=O)c(C(=O)O)cn1c23 [Levofloxacin] | no significant effect; also recorded: no inhibitory effect was detected | only at the highest tested concentration (500 µM); also recorded: only significant at the highest concentration tested | well above the reported plasma concentrations | also observed using the same concentrations, although to a lesser extent

From publication PMC12036814 (Angewandte Chemie (International Ed. in English), 2025)
